Test results reported in article PMC6926962, “Pentafluorophenyl Platinum(II) Complexes of PTA and Its N-Allyl and N-Benzyl Derivatives: Synthesis, Characterization and Biological Activity” (Materials, 2019).
Read-outs that look alike come from different tables or passages of the source.

Legend:
[1] = tested on: NHDF (normal human dermal fibroblasts); design: method as in PMID 31237306; conditions: nd = not detectable, read-out: Half maximal inhibitory concentration (IC50); cited from earlier work
[2] = tested on: A549 (human lung carcinoma); design: method as in PMID 31237306; conditions: nd = not detectable, read-out: Half maximal inhibitory concentration (IC50); cited from earlier work
[3] = biological target: T1, human serum albumin (HSA) (Homo sapiens, UniProt P02768); conditions: under the same conditions; cited from earlier work
T1 construct: High purity free-HSA (>96%, Sigma-Aldrich, Steinheim, North Rhine-Westphalia, Germany) was used as purchased; purchased Sigma-Aldrich
T1 sequence (P02768 25-609): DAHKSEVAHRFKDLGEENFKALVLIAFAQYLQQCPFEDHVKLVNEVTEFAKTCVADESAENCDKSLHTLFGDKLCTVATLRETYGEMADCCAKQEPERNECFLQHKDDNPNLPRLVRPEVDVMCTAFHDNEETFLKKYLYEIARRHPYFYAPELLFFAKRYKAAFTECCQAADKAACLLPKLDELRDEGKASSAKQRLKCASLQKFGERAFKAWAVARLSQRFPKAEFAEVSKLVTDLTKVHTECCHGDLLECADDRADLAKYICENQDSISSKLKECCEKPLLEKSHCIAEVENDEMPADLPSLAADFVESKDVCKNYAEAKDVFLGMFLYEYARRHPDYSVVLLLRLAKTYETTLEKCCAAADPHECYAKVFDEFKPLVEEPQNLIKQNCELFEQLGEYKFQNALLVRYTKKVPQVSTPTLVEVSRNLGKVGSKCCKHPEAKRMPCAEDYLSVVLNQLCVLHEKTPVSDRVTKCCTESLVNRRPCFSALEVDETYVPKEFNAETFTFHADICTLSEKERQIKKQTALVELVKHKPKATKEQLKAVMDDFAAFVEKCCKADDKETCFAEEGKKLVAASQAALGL

[4] = tested on: HeLa (human cervix carcinoma); design: method as in PMID 31237306; conditions: nd = not detectable, read-out: Half maximal inhibitory concentration (IC50); cited from earlier work
[5] = tested on: MCF7 (human breast adenocarcinoma); design: method as in PMID 31237306; conditions: nd = not detectable, read-out: Half maximal inhibitory concentration (IC50); cited from earlier work
[6] = tested on: A549 (human lung carcinoma); test: MTT cell viability assay, A549; format: cell-based; conditions: A549, 72 h incubation, read-out: Half maximal inhibitory concentration (IC50)
Experimental: (§1) NHDF (normal human dermal fibroblasts; PromoCell, C-12302), A549 (human lung carcinoma; ATCC, No CCL-185 ^TM), HeLa (human cervix carcinoma; ATCC, No CCL-2 ^TM) and MCF7 (human breast adenocarcinoma; ATCC, No HTB-22 ^TM) were used. NHDF, A549, HeLa and MCF7 cell lines were cultured in DMEM (Lonza, Basel, Switzerland). Media were supplemented with 10% FBS (Biological Industries, Kibbutz Beit-Haemek, Israel), 4 mM L-glutamine (Biological Industries, Kibbutz Beit-Haemek, Israel), 100 U/mL of penicillin and 100 µg/mL of streptomycin (Sigma, Steinheim, North Rhine-Westphalia, Germany).
(§2) All cell cultures were inserted in a 96-well plate (Eppendorf, Freie und Hansestadt Hamburg, Germany) in a concentration of 10^5 cells per well.
(§3) Compounds 2a–c and ligands 1a–c were dissolved in distilled water and diluted to afford concentrations of 30, 3, 0.3 and 0.03 μg/mL in DMEM and incubated in standard conditions for 72 h, after which the MTT (Sigma, Steinheim, North Rhine-Westphalia, Germany) assay was carried out. 20 µL of MTT (5 mg/mL) was added to each well, incubation for 4 h at 37 °C was implemented, and then 80 µL of lysis buffer was added. The test consists in the enzymatic reduction of the tetrazolium salt MTT in metabolically active cells. The metabolite, purple-colored formazan is measured colorimetrically, using a multiwell plate reader. The optical density (OD) was measured using a spectrophotometric microplate reader (Multiscan Go, Thermo Fisher, Waltham, MA, USA) at 570 nm with reference wavelength of 630 nm. The viability of the investigated cell cultures was estimated using following formula: viability% = (average OD for test group/average OD for control group) × 100. The untreated cells were used as a control group.

[7] = tested on: NHDF (normal human dermal fibroblasts); test: MTT cell viability assay, NHDF; format: cell-based; conditions: 72 h incubation, read-out: Half maximal inhibitory concentration (IC50)
Experimental: as §1, §2, §3

[8] = tested on: MCF7 (human breast adenocarcinoma); test: MTT cell viability assay, MCF7; format: cell-based; conditions: MCF7, 72 h incubation, read-out: Half maximal inhibitory concentration (IC50)
Experimental: as §1, §2, §3

[9] = tested on: HeLa (human cervix carcinoma); test: MTT cell viability assay, HeLa; format: cell-based; conditions: 72 h incubation, read-out: Half maximal inhibitory concentration (IC50)
Experimental: as §1, §2, §3

[10] = Solubility in water; format: physicochemical; conditions: 25 °C
[11] = biological target: T1, human serum albumin (HSA); test: HSA interaction, circular dichroism; format: binding; conditions: HSA/complex molar ratio 1/10; free HSA 50.88%
Experimental: High purity free-HSA (>96%, Sigma-Aldrich, Steinheim, North Rhine-Westphalia, Germany) was used as purchased. The stock solutions of platinum complexes (200 μM) were freshly prepared in double distilled water prior to their use. The HSA solutions (200 μM) were prepared in PBS (pH 7.40). […] Measurements were done after 24 h incubation at 300, 305 and 310 K. HSA concentration was determined, using A279 (1 mg/mL) as 0.531 [85].
Circular dichroism spectra were recorded on a Jasco J-715 spectropolarimeter, over the range of 190–250 nm in 0.1 cm cuvettes. The α-helical content of HSA was calculated from the molar ellipticity (θ) at 208–210 nm using Equations (1) and (2): (1) MRE209=ObservedCD (mdeg)/Cp·n·l·10, (2) α−helix (%)=MRE209−4000/33000−4000×100, where MRE is the mean residue ellipticity, Cp is the molar concentration of the protein, n is the number of amino acid residues (583) and l is the path-length (0.1 cm).

[12] = biological target: T1, human serum albumin (HSA); test: HSA interaction, fluorescence quenching (Trp-214); format: binding; conditions: for KSV (Stern-Volmer constant): HSA 10 μM, pH 7.40; for ΔH^0 / ΔS^0: van't Hoff; for maximum blue shift of HSA fluorescence emission: HSA emission max 335 nm, λex 295 nm
Experimental: High purity free-HSA (>96%, Sigma-Aldrich, Steinheim, North Rhine-Westphalia, Germany) was used as purchased. The stock solutions of platinum complexes (200 μM) were freshly prepared in double distilled water prior to their use. The HSA solutions (200 μM) were prepared in PBS (pH 7.40). In the final step, the samples contained (protein):(drug) equal 1:0–1:9 in PBS, where CHSA was 10 μM. Measurements were done after 24 h incubation at 300, 305 and 310 K. HSA concentration was determined, using A279 (1 mg/mL) as 0.531 [85].
Emission fluorescence spectra were recorded using Hitachi F-2700 spectrofluorimeter (Tokio, Japan) in 1.0 cm quartz cells in the 300–400 nm range. Trp-214 fluorescence of HSA was measured at 295 nm. The intensity at 335 nm (Trp-214) was used to achieve the quenching mechanism and calculate the binding constants and thermodynamic parameters according to literature reports.

[13] = Octanol-water partition coefficient determination; format: physicochemical; conditions: 24 °C, 10^−3 M in water saturated with octanol
Experimental: The log(P) values corresponding to the octanol–water partition coefficient was adjusted to the solubility properties of the compounds [84]. Complexes were dissolved in water previously saturated with octanol, to achieve concentrations of 10^−3 M. At 24 °C, 25 mL of octanol saturated with water was introduced into a 100 mL flask equipped and then 25 mL of the aqueous complex solutions was added. The two-phase mixture thus obtained was stirred vigorously for 20 min. After separation of the phases and removal of the respective solvents under vacuum, the attained residues were weighed. Values for log(P) of −0.11, −0.71 and −0.40 for 2a, 2b and 2c, respectively, were obtained.

Compound | IC50 ([6]; Homo sapiens) [µM] | IC50 ([7]; Homo sapiens) [µM] | IC50 ([8]; Homo sapiens) [µM] | IC50 ([9]; Homo sapiens) [µM] | IC50 [6] [µM] | IC50 [7] [µM] | solubility in H2O (S25 °C) [10] | IC50 [8] [µM] | content of α-helix of HSA [11] [%] | KA (association constant) ([12]; 300 K) [M⁻¹] | Kq (quenching rate constant) ([12]; 300 K) [M⁻¹ s⁻¹] | n (number of binding sites) ([12]; 300 K) | ΔG^0 ([12]; 300 K) [kJ/mol] | KSV (Stern-Volmer constant) ([12]; 300 K) [M⁻¹] | ΔH^0 ([12]; 300 K) [kJ/mol] | ΔS^0 ([12]; 300 K) [J mol^−1·K^−1] | KA (association constant) ([12]; 305 K) [M⁻¹] | Kq (quenching rate constant) ([12]; 305 K) [M⁻¹ s⁻¹] | IC50 [9] [µM] | log(P) octanol-water partition coefficient [13] | further results
N.N.[Cl][Pt][Cl] [Cisplatin, cisplatin] |  |  |  |  |  |  |  |  |  |  |  |  |  |  |  |  |  |  |  |  | IC50 [1]: 16.6 ± 2.1 µM; IC50 [2]: 33.3 ± 4.2 µM; binding constant Ka for cisplatin-HSA complex [3]: 852 M⁻¹; IC50 [4]: 16.6 ± 3.1 µM; IC50 [5]: 33.3 ± 4.2 µM
C=CC[N+]12CN3CN(CP(C3)C1)C2 [Compound 1b, 1-allyl-1-azonia-3,5-diaza-7-phosphaadamantane] | > 263 | > 263 | > 263 | 65.8 ± 6.6 |  |  |  |  |  |  |  |  |  |  |  |  |  |  |  |  | 
c1ccc(C[N+]23CN4CN(CP(C4)C2)C3)cc1 [Compound 1c, 1-benzyl-1-azonia-3,5-diaza-7-phosphaadamantane] | > 224 | > 224 | 72.4 ± 2.4 | 56 ± 16 |  |  |  |  |  |  |  |  |  |  |  |  |  |  |  |  | 
C=CC[N+]12CN3CN(C1)C[PH]([Pt]([Cl])([c]1c(F)c(F)c(F)c(F)c1F)[PH]14CN5CN(C[N+](CC=C)(C5)C1)C4)(C3)C2.F[B-](F)(F)F.F[B-](F)(F)F [Compound 2b, trans-(PtCl(C6F5)(APTA)2)(BF4)2] |  |  |  |  | 7.79 ± 1.7 | 26.9 ± 3.5 | ≈ 4.0 mg mL^−1 | > 31 | 46.29 | 9880 | 1.77e+12 | 1.26 | -22.7 | 8850 | 16.8 | 131.4 | 9900 | 1.96e+12 | 29.5 ± 1.3 | −0.71 | n (number of binding sites) ([12]; 305 K): 0.96; ΔG^0 ([12]; 305 K): -23.3 kJ/mol; KSV (Stern-Volmer constant) ([12]; 305 K): 9780 M⁻¹; ΔH^0 ([12]; 305 K): 16.8 kJ/mol; ΔS^0 ([12]; 305 K): 131.4 J mol^−1·K^−1; KA (association constant) ([12]; 310 K): 11000 M⁻¹; Kq (quenching rate constant) ([12]; 310 K): 2.08e+12 M⁻¹ s⁻¹; n (number of binding sites) ([12]; 310 K): 1.24; KSV (Stern-Volmer constant) ([12]; 310 K): 10400 M⁻¹; maximum blue shift of HSA fluorescence emission [12]: ca. 3 nm
F[B-](F)(F)F.F[B-](F)(F)F.Fc1c(F)c(F)[c]([Pt-3]([Cl])([P+]23CN4CN(C[N+](Cc5ccccc5)(C4)C2)C3)[P+]23CN4CN(C[N+](Cc5ccccc5)(C4)C2)C3)c(F)c1F [Compound 2c, trans-(PtCl(C6F5)(BzPTA)2)(BF4)2] |  |  |  |  | > 28.1 | 11.2 ± 3.1 | ≈ 3.0 mg mL^−1 | > 28.1 | 47.17 | 14500 | 2.72e+12 | 1.25 | -23.9 | 13600 | 7.15 | 103.5 | 15200 | 2.96e+12 | 8.89 ± 4.1 | −0.40 | n (number of binding sites) ([12]; 305 K): 0.99; ΔG^0 ([12]; 305 K): -24.4 kJ/mol; KSV (Stern-Volmer constant) ([12]; 305 K): 14800 M⁻¹; ΔH^0 ([12]; 305 K): 7.15 kJ/mol; ΔS^0 ([12]; 305 K): 103.5 J mol^−1·K^−1; KA (association constant) ([12]; 310 K): 15900 M⁻¹; Kq (quenching rate constant) ([12]; 310 K): 3.24e+12 M⁻¹ s⁻¹; n (number of binding sites) ([12]; 310 K): 1.59; KSV (Stern-Volmer constant) ([12]; 310 K): 16200 M⁻¹; maximum blue shift of HSA fluorescence emission [12]: ~5 nm
trans-(PtCl(C6F5)(PTA)2) [Compound 2a] |  |  |  |  | 15.4 ± 5.3 | 26.1 ± 0.68 | ≈ 0.35 mg mL^−1 | > 42.1 |  |  |  |  |  |  |  |  |  |  | > 42.1 | −0.11 | 
